Experimental data reported in PMC8861431, “Tissue Pharmacokinetic Properties and Bystander Potential of Hypoxia-Activated Prodrug CP-506 by Agent-Based Modelling” (Frontiers in Pharmacology, 2022).
“And” between values parts separate entries of the source, which are not always exact repeats. Equal values may be shown once.

Columns and labels:
Assay type in all cases: cell-based, human
HCT-116 cell line panel = experiment: Anti-proliferative IC50 assay of authentic CP-506 metabolites; settings: Homo sapiens, HCT-116, 120 h, read-out: Anti-proliferative IC50 of metabolite
Description: Cells (700–1,000 per well) were seeded with 100 µl culture medium into 96-well plates and left to attach for 2 h in a humidified 37°C incubator. Compounds were prepared in culture medium and serially diluted (1:3) in the well volume. […] Aerobic experiments were performed under standard tissue culture conditions (21% O2), and the anoxic experiments were performed in parallel in a 5% H2/Pd catalyst anaerobic chamber (Shellab Bactron, Sheldon manufacturing Inc., Cornelius, OR) using pre-equilibrated media and plasticware. All anoxia experiments were conducted using a catalyst-scrubbed anaerobic chamber, unless otherwise specified, with gas oxygen measurements of <1 ppm O2. Cells were then washed three times and left to grow for 96 h before cell density determination using a sulforhodamine B (SRB) assay ([Vichai and Kirtikara, 2006]). To this end, the cells were fixed by layering 50 µl of trichloroacetic acid (40% w/v in MilliQ water) on top of the culture media (150 µl) in each well for 1 h at 4°C. Plates were rinsed under running tap water and stained with 50 µl of SRB (0.4% w/v in MilliQ water containing 1% v/v acetic acid) for 30 min at room temperature. Plates were rapidly destained by rinsing three times in tap water containing 1% (v/v) acetic acid. The stain was solubilized by adding 100 µl of 10 mM unbuffered Tris base to each well with gentle rocking for 1 h. Plates were read on a Biotek ELx808 Absorbance Microplate Reader at 490 nm using KC4 software. The IC50 value (concentration required to reduce staining to 50% of the untreated control on the same plate) for each compound was determined by interpolation using a 4-parameter logistic regression model.
FIGURE 3 Hypoxia-dependent metabolism of CP-506 leads to the formation of a multitude of short-lived species with variable cytotoxicity. (A) Bioreductive metabolism of CP-506 under normoxic (21% O2) and anoxic conditions (<1 ppm O2). Concentrations of CP-506 and its metabolites (CP-506H, CP-506M and CP-506M-Cl2) were quantified by mass spectrometry with reference to the appropriate deuterated (D8) internal standard. Values are the mean ± SEM for three independent experiments. (B) Stability of CP-506 metabolites in culture medium (without cells) at 37°C. Concentrations were determined by mass spectrometry using standard curves generated from authenticated stocks. […] IC50 values are the mean ± SEM of duplicate wells for three independent experiments. T-tests were performed using GraphPad Prism 8 (ns, p-value > 0.05; *, p-value ≤ 0.05; **, p-value ≤ 0.01; ***, p-value ≤ 0.001).

[1] = system: PORko-G cell line (POR-knockout HCT-116); experiment: Monolayer clonogenic assay (with monolayer ABM fit)
Description: (§1) Cells (4.8 x 10^5 cells) were seeded with 2 ml culture medium into 6-well plates and left to attach for 2 h in a humidified 37°C incubator. Compounds were then prepared in culture medium and added in a 500 µl volume to each well. Plates were returned to a humidified 37°C incubator for the duration of the drug exposure (4 h). Aerobic and anoxic experiments were performed as described above. Plates were then removed from the anaerobic chamber and processed alongside the aerobic cultures. Cells were detached from monolayer by trypsinisation and plated at serial dilutions in 6-well plates. Cells were left to grow in a standard 37°C incubator for 10 days until the controls formed discrete colonies comprised of at least 50 cells. Colonies were visualized by staining with methylene blue (2 g/L in 50% aqueous ethanol) for 30 min. The number of colonies with at least 50 cells was manually counted to determine the plating efficiency. The surviving fraction was determined as the ratio of plating efficiency of treated cells to that of the controls.
(§2) An agent-based model (ABM) employing a one-dimensional approximation for monolayers was used to develop a cellular PK model, as described in further detail elsewhere ([Hong et al., 2018b]; [Mao et al., 2018]). The mathematical framework assumes that solute concentrations in the medium are dependent only on the depth (on the z coordinate) and not the lateral position (x,y) so that all cells are exposed to the same concentration of nutrients and drugs within the monolayer culture. Moreover, all cells have the same rate of metabolism and volume growth at any instance with variability allowed in cell volume, rate of cell division and cell death. Monolayer ABM simulations were performed on a desktop Windows PC (Intel core I7 processor) from a Qt (Qt Company, https://www.qt.io/) graphical user interface passing parameters to a DLL built with Fortran95. The monolayer ABM uses a finite difference method to solve reaction-diffusion equations for each compound (N) in the medium and cells. Parameters for the cellular uptake and metabolism were fitted to the concentration-time profiles of CP-506 and its metabolites in monolayer cultures of POR-R cells using a linear (first order) cell transport and metabolism model. Terms for the extracellular instability of CP-506 and its metabolites were set at their respective values in media stability studies, and media diffusion coefficients were estimated from the support membrane diffusion coefficients described below. Experimental data describing the kinetics of CP-506 uptake under aerobic conditions was fitted by adjusting the permeability coefficients kin and kout for each compound. These values were fixed for anoxic experiments to allow for parameter estimation of the rate of intracellular CP-506 metabolism (kmet0) as well as the intracellular/extracellular partitioning ratio (kin and kout) and metabolic instability (kmet0) for its cytotoxic metabolites.
(§3) The spheroid ABM is described in further detail elsewhere ([Hong et al., 2018b]; [Mao et al., 2018]). The model employs two 3D grids and two solvers, a coarse grid represents the culture medium and is embedded with a much finer grid that represents the spheroid in a small cubic region at the bottom of the well. The spheroid grows in a specified volume and depth of unstirred medium containing dissolved oxygen. The geometry of the model is lattice-based, in which cells occupy cubic sites on a regular 3D lattice and grow in volume at a rate dependent on the local oxygen concentration. Autonomous cell mobility and cell-cell forces are not simulated. Cell motion occurs only as a result of cell division. Cells divide when the volume reaches a pre-set value (Vdiv) and the resultant daughter cell occupies an adjacent empty lattice site. […] The oxygen concentration at the air-medium boundary is defined by the gas phase of the culture environment. […]

[2] = system: POR-R cell line (POR-overexpressing HCT-116); experiment: as above; settings: for k d M: kill probability rate constant in monolayer cultures: fitted by monolayer ABM to clonogenic survival under anoxia, set to zero for the prodrug, same kd assumed for metabolites
Description: as §1, §2, §3

[3] = anoxia, estimated from clonogenic survival by ABM

| Structure (SMILES) | IC50 (HCT-116 cell line panel) [µM] | Target k met0: rate constant for the maximum rate of metabolism in PORko-G cells under anoxia [1, 3] [min⁻¹] | k d M: kill probability rate constant in monolayer cultures [2] | Target k met0: rate constant for the maximum rate of metabolism in PORko-G cells under anoxia ([1]; anoxia, footnote d: assumed equivalent to the measured metabolites or from published PR-104A estimates) | IC50 ([1]; Homo sapiens, HCT-116, PORko-G monolayer, 4 h exposure, <1 ppm O2, read-out: Clonogenic IC50 under anoxia) [µM] | Differential in anoxic sensitivity between PORko-G and POR-R cell lines ([1]; monolayer clonogenic endpoint, anoxia) | IC50 ([2]; Homo sapiens, HCT-116, POR-R monolayer, 4 h exposure, <1 ppm O2, read-out: Clonogenic IC50 under anoxia) [µM] |
| --- | --- | --- | --- | --- | --- | --- | --- |
| CCN1CCN(C(=O)c2cc(N(CCBr)CCOS(C)(=O)=O)c(S(C)(=O)=O)cc2N)CC1 [CP-506M, 2-((4-amino-5-(4-ethylpiperazine-1-carbonyl)-2-(methylsulfonyl)phenyl)(2-bromoethyl)amino)ethyl methanesulfonate] | < 10 | 0.1 | 0.01 |  |  |  |  |
| CCN1CCN(C(=O)c2cc(N(CCCl)CCCl)c(S(C)(=O)=O)cc2N)CC1 [CP-506M-Cl2, (2-Amino-5-(bis(2-chloroethyl)amino)-4-(methylsulfonyl)phenyl)(4-ethylpiperazin-1-yl)methanone] | < 10 |  | 0.01 | 0.1 ^d min^−1 |  |  |  |
| CCN1CCN(C(=O)c2cc(N(CCBr)CCOS(C)(=O)=O)c(S(C)(=O)=O)cc2[N+](=O)[O-])CC1 [CP-506, 2-[(2-bromoethyl)-5-[(4-ethyl-1-piperazinyl)carbonyl]-2-(methylsulfonyl)-4-nitroanilino]ethyl methanesulfonate] |  | 0.0019 | 0 |  | 17.1 ± 3.4 | 22 fold and 20 fold | 0.8 ± 0.3 |
| CCN1CCN(C(=O)c2cc(N(CCBr)CCOS(C)(=O)=O)c(S(C)(=O)=O)cc2NO)CC1 [CP-506H, 2-((2-bromoethyl)(5-(4-ethylpiperazine-1-carbonyl)-4-(hydroxyamino)-2-(methylsulfonyl)phenyl)amino)ethyl methanesulfonate] | < 10 | 0.09 | 0.01 |  |  |  |  |
